In PMC9145193 (Molecules, 2022):
Where “and” joins values, the source holds several entries; their conditions need not be identical. Identical values can stand only once. Like-named read-outs stand apart in the source and are kept apart here.

Assays:
Aβ = target: T1, Aβ (Homo sapiens, UniProt P05067); assay: Self-induced Aβ aggregation inhibition by thioflavin T assay; assay type: biochemical; conditions: read-out: Aβ Aggregation Inhibition (%)
T1 construct: Aggregation of β-amyloid peptide (Aβ) is one of the main histopathological hallmarks of AD; purchased Beyotime P9001
T1 sequence (P05067 672-713): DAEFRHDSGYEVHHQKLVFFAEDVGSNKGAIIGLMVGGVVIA
Experimental: Aggregation of β-amyloid peptide (Aβ) is one of the main histopathological hallmarks of AD [34].
A total of 1mg Aβ (P9001, Beyotime, Shanghai, China) was dissolved in 1 mL of hexafluoroisopropanol and aliquoted into 50 μL per tube. Then, 20 μL of DMSO was added into one tube of Aβ solution. The test compound was prepared as a 10 mM of stock solution with DMSO and diluted to 50 μM with PBS (including the control). Then, 20 μL of the test compound and 20 μL of the Aβ solution were added to a 96-well black plate, which was gently tapped to mix the solution, covered tightly and sealed with black tape to prevent evaporation of the solvent, and left in the dark at room temperature for 24 h. Then. 160 μL of THT solution at a concentration of 5 μM was added and the fluorescence absorption was measured at an excitation wavelength of 445 nm and an emission wavelength of 490 nm. The software GraphPad Prism 8.0 was used to analyze the data.

AChE = target: T2, AChE (Electrophorus electricus, UniProt O42275); assay: Kinetic study of AChE inhibition (Lineweaver-Burk); assay type: biochemical; conditions: 10a at 0, 0.8 and 1.6 nM
T2 construct: purchased Merck C3389
T2 sequence (O42275 24-633): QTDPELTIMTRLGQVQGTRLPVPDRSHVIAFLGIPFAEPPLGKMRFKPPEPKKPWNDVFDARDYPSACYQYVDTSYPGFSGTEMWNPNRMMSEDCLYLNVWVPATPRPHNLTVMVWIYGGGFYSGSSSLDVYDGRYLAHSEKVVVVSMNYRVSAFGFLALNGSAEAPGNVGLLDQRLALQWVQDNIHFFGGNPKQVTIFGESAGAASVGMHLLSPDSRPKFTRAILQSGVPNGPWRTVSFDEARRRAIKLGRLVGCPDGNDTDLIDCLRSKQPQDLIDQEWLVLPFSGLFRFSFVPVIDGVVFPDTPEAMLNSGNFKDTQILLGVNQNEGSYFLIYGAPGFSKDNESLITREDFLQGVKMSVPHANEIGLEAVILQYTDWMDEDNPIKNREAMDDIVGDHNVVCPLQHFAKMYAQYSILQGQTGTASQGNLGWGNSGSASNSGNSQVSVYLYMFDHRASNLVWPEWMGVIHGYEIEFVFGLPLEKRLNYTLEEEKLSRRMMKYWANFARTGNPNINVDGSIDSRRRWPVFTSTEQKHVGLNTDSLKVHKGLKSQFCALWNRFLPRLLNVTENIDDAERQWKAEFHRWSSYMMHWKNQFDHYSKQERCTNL
Experimental: The mechanistic inhibition study of compound 10a on the AChE was carried out through kinetic parameters such as maximal velocity (Vmax), inhibitory concentration (Ki) and Michalis–Menten dissociation constant (Km).
Kinetic study of AChE inhibition was carried out using Ellman’s method, which is the same as the AChE assay, to determine the kinetic mechanism of chemical inhibition. The kinetic inhibition of compound 10a was analyzed at concentrations of 0.8 and 1.6nM. Lineweaver–Burk reciprocal plots were created by graphing 1/velocity vs. 1/[substrate] at various concentrations of substrate acetylthiocholine. The software GraphPad Prism 8.0 was used to analyze the data.

SH-SY5Y cells = assay: Cytotoxicity assay on SH-SY5Y cells (MTT); assay type: cell-based; conditions: 10, 25 and 50 μM, 24 h
Experimental: To evaluate the cytotoxicity of these new compounds, cell viability was tested on SH-SY5Y cells.
SH-SY5Y cells were grown in a 25 cm^2 culture flask in fresh MEM/F12 medium, supplemented with 10% fetal bovine serum, 100 U/mL penicillin, and 100 µg/mL streptomycin, and incubated at 37 °C with 5% CO2. Cells were seeded at a density of 1 × 10^4 cells per well in a 96-well plate. After incubation for 24 h, medium was removed. […] After 24 h treatment, 10 μL of 3-(4,5-dimethyl-2-thiazolyl)-2,5-diphenyl-2-H-tetrazolium bromide was added into each well. After 4 h of incubation at 37 °C, 100 μL of DMSO was added to dissolve the formazan crystals, and the mixture’s absorbance was measured at 490 nm under a microplate reader (FC/K3, Thermo, Waltham, MA, USA). The survival rate was estimated using the formula Ae/Ab × 100%, where Ae and Ab represent the absorbance of SH-SY5Y cells in the presence and absence of the tested drugs, respectively. Each experiment was replicated three times.

[1] = DPPH free radical scavenging assay; conditions: 50 μM, mean ± SEM
Experimental: DPPH assay was used to evaluate the free radical scavenging ability of the representative compound 10a, while Trolox was used as a control.
Compound 10a was tested for free radical-scavenging activity using 1,1-diphenyl-2-picryl-hydrazyl (DPPH) (D9132, Merck, Kenilworth, NJ, USA). To make a 0.1 mM concentration of DPPH stock solution, DPPH was dissolved in methanol. […] Trolox was used as a reference. The absorbance was measured at 545 nm after 30 min of reaction at 25 °C.

[2] = target: T3, AChE enzyme from electrophorus electricus (eeAChE) (Electrophorus electricus, UniProt O42275); assay: biochemical; conditions: mean ± SEM from three independent experiments
T3 construct: purchased Merck C3389
T3 sequence (O42275 24-633): as above
Experimental: Donepezil was used as a positive control.
AChE activity was measured by the […] using AChE enzyme from electrophorus electricus (eeAChE) (C3389, Merck, Kenilworth, NJ, USA). AChE solution (2 U/mL) was prepared with 0.1 M phosphate buffer (pH 8.0) firstly. Varied concentrations of test compounds (20 μL), 1 mM 5′-dithiobis (2-nitrobenzoic acid) (DTNB) solution (100 μL), and AChE solution (40 μL) were added in order to each well of a 96-well plate. After incubation for 15 min at 37 °C, the reaction was initiated by adding 20 μL of acetylthiocholine iodide (1 mM) to the mixed solution. The absorbance of each plate was instantly measured at 405 nm using a microplate reader. The inhibition of each compound was estimated using the formula (1−Ai/Ac) × 100, where Ai and Ac represent the absorbance of AChE in the presence and absence of inhibitors, respectively. Each experiment was replicated three times. Plotting curves of log concentration via percentage of inhibition, the IC50 values of all tested compounds were graphically analyzed (Graph Pad Prism 8.0).

| Compound | IC50 [2] | also measured |
| --- | --- | --- |
| Oc1ccc(/C=C/c2cc(O)cc(O)c2)cc1 [Resveratrol, reference compound] | – | inhibition at 25 µM (Aβ; 25 μM, self-induced, thioflavin T, mean ± SEM): 83.3 ± 5.23% |
| COc1cc2c(cc1OC)C(=O)/C(=C/c1cc[n+](Cc3ccccc3)cc1C(C)=O)OC2.[Br-] [10a, (Z)-3-Acetyl-1-benzyl-4-((6,7-dimethoxy-4-oxoisochroman-3-ylidene)methyl)pyridin-1-ium bromide] | 1.61 ± 0.02 nM | Type of AChE inhibition (Lineweaver-Burk plot) (AChE): mixed-type inhibitor; inhibition at 25 µM (Aβ): 57 ± 2.68%; Cell viability on SH-SY5Y cells (SH-SY5Y cells): did not significantly alter cell viability; Reduced DPPH (%) [1]: 31.89% and 31.89 ± 3.23% |
| Cc1c(C)c2c(c(C)c1O)CCC(C)(C(=O)O)O2 (centres unmarked) [Trolox, reference compound] | – | Reduced DPPH (%) [1]: 72.41 ± 4.23% |
| COc1cc2c(cc1OC)C(=O)/C(=C/c1cc[n+](Cc3ccccc3F)cc1C(N)=O)OC2.[Br-] [13b, (Z)-3-Carbamoyl-4-((6,7-dimethoxy-4-oxoisochroman-3-ylidene)methyl)-1-(2-fluorobenzyl)pyridin-1-ium Bromide] | 3.54 ± 0.05 nM | Cell viability on SH-SY5Y cells (SH-SY5Y cells): did not significantly alter cell viability |
| COc1cc2c(cc1OC)C(=O)/C(=C/c1cc[n+](Cc3ccccc3C)cc1C(C)=O)OC2 [10k, (Z)-3-Acetyl-4-((6,7-dimethoxy-4-oxoisochroman-3-ylidene)methyl)-1-(2-methylbenzyl)pyridin-1-ium Bromide] | 4.8 ± 0.26 nM | – |
| COc1cc2c(cc1OC)C(=O)/C(=C/c1cc[n+](Cc3cccc(Cl)c3)cc1C(C)=O)OC2 [10f, (Z)-3-Acetyl-1-(3-chlorobenzyl)-4-((6,7-dimethoxy-4-oxoisochroman-3-ylidene)methyl)pyridin-1-ium Bromide] | 10.3 ± 1.08 nM | – |
| COc1cc2c(cc1OC)C(=O)/C(=C/c1cc[n+](Cc3ccc(C(F)(F)F)cc3)cc1C(C)=O)OC2 [10s, (Z)-3-Acetyl-4-((6,7-dimethoxy-4-oxoisochroman-3-ylidene)methyl)-1-(4-(trifluoromethyl)benzyl)pyridin-1-ium Bromide] | 326 ± 9.01 nM | – |
| COc1cc2c(cc1OC)C(=O)/C(=C/c1cc[n+](Cc3cccc(F)c3)cc1C(N)=O)OC2 [13c, (Z)-3-Carbamoyl-4-((6,7-dimethoxy-4-oxoisochroman-3-ylidene)methyl)-1-(3-fluorobenzyl)pyridin-1-ium Bromide] | 6.02 ± 0.08 nM | – |
| COc1cc2c(cc1OC)C(=O)/C(=C/c1cc[n+](Cc3ccc(Br)cc3)cc1C(N)=O)OC2 [13j, (Z)-1-(4-Bromobenzyl)-3-carbamoyl-4-((6,7-dimethoxy-4-oxoisochroman-3-ylidene)methyl)pyridin-1-ium Bromide] | 422 ± 5.92 nM | – |
